Common to all, as to assay type: functional
Assay [1] has as its system Rattus norvegicus. The assay can be described thus: Antiinflammatory activity in Wistar albino rat assessed as inhibition of carrageenan-induced paw edema at 10 mg/kg, po administered 30 mins prior to carrageenan challenge measured after 3 hrs by plethysmometer analysis.
Assay [2] has as its system Rattus norvegicus. The assay can be described thus: Antiinflammatory activity in Wistar albino rat assessed as inhibition of carrageenan-induced paw edema at 10 mg/kg, po administered 30 mins prior to carrageenan challenge measured after 1 hr by plethysmometer analysis. For orientation: Carrageenan injected into the paw causes an acute inflammation.
The test system of assay [3] is Rattus norvegicus. In words: Antiinflammatory activity in Wistar albino rat assessed as inhibition of carrageenan-induced paw edema at 10 mg/kg, po administered 30 mins prior to carrageenan challenge measured after 4 hrs by plethysmometer analysis.
For assay [4], the system named is Rattus norvegicus. In words: Antiinflammatory activity in Wistar albino rat assessed as inhibition of carrageenan-induced paw edema at 10 mg/kg, po administered 30 mins prior to carrageenan challenge measured after 2 hrs by plethysmometer analysis.

The structures appear in SMILES notation.

Broadly, the inhibition in vivo is the drop in the measured response relative to a control, in per cent. With `COc1ccc2c(c1)c(CC(=O)O)c(C)n2C(=O)c1ccc(Cl)cc1` [INDOMETHACIN], the inhibition in vivo at 10 mg/kg came to 80.9% in assay [1], 94.4% in assay [2], 86.5% in assay [3] and 84.2% in assay [4].
